Laboratory results as given in US8198267B2, “Substituted oxazolidinones and their use” (Bayer Intellectual Property GmbH, priority 2007, dated 2012).
pIC50: −log10 of the molar value.

Assays:
[1] = molecular target: T1, factor Xa (Homo sapiens, UniProt P00742); assay: Factor Xa-inhibitory activity of the potential inhibitors in plasma samples; assay type: biochemical; settings: citrate plasma (Octapharma); factor X activated by rattlesnake toxin (RVV); ChromozymX chromogenic substrate, 405 nm
T1 construct: tissue Octapharma; host or cells: citrate plasma
T1 sequence (P00742 235-488 limits assumed): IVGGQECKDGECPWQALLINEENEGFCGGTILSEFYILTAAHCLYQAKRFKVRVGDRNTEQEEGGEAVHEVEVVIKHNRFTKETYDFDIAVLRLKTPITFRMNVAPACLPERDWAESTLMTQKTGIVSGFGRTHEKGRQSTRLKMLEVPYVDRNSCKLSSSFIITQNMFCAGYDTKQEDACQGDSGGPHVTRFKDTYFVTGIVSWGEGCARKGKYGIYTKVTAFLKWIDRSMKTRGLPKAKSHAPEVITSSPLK
T1 sequence (P00742 41-179 limits assumed): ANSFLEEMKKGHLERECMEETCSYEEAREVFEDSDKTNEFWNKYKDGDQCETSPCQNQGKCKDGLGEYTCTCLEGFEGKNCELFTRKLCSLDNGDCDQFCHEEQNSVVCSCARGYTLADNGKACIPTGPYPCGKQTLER
Experimental: a.4) Determination of the Factor Xa-Inhibitory Activity of the Potential Inhibitors in Plasma Samples
To determine the inhibition of factor Xa in plasma samples, the factor X present in plasma is activated by a protease from rattlesnake toxin. The factor Xa activity or its inhibition by potential inhibitors is then measured by addition of a chromogenic substrate.
Various concentrations of the substances to be tested are dissolved in dimethyl sulfoxide and diluted with an aqueous refludan solution (10 μg/ml). In clear 96-well plates having a flat bottom, 30 μl of citrate plasma (Octapharma) are mixed with 10 μl of the substance dilution. Then, either 20 μl of a solution of a rattlesnake toxin (Russel viper venom (RVV); RVV reagent: Pentapharm 121-06, final concentration 0.6 mU) in an aqueous calcium chloride solution buffer (final concentration of calcium chloride 0.05 M) or 20 μl of the aqueous calcium chloride solution (final concentration of calcium chloride 0.05 M) without RVV reagent (as reference for an unstimulated sample) are added. After addition of 20 μl of ChromozymX substrate (final concentration 1.6 mmol/l, Bachem L-1565, diluted in water) the samples are measured in a SpectraFluor Reader using a measurement filter of 405 nm each minute over a period of 20 minutes. The IC50 value is determined when about 70% of the maximum signal is reached (about 12 min).

[2] = molecular target: thrombin (Homo sapiens, UniProt P00734); assay: Thrombin-inhibitory activity of the potential inhibitors in plasma samples; assay type: biochemical; settings: citrate plasma (Octapharma); ecarin stimulation; fluorogenic thrombin substrate, 360/465 nm
Experimental: a.5) Determination of the Thrombin-Inhibitory Activity of the Potential Inhibitors in Plasma Samples
Various concentrations of the substances to be tested are dissolved in dimethyl sulfoxide and diluted with water.

Row | Structure (SMILES) | pIC50 [2] | pIC50 [1]
1 | CC(=O)COc1cccn(-c2ccc(N3C[C@H](CNC(=O)c4ccc(Cl)s4)OC3=O)cc2C)c1=O [Example 7, 5-Chloro-N-[((5S)-3-{3-methyl-4-[2-oxo-3-(2-oxopropoxy)pyridin-1(2H)-yl]phenyl}-2-oxo-1,3-oxazolidin-5-yl)methyl]thiophene-2-carboxamide] | 6.56 | 6.69
2 | COc1cc(N2C[C@H](CNC(=O)c3ccc(Cl)s3)OC2=O)ccc1N1CCCN(C)C1=O [Example 35, 5-Chloro-N-({(5S)-3-[3-methoxy-4-(3-methyl-2-oxotetrahydropyrimidin-1(2H)-yl)phenyl]-2-oxo-1,3-oxazolidin-5-yl}methyl)thiophene-2-carboxamide] | 6.41 | 6.26
3 | Cc1cc(N2C[C@H](CNC(=O)c3ccc(Cl)s3)OC2=O)ccc1-n1cccc(OCC(C)(C)O)c1=O [Example 9, 5-Chloro-N-[((5S)-3-{4-[3-(2-hydroxy-2-methylpropoxy)-2-oxopyridin-1(2H)-yl]-3-methylphenyl}-2-oxo-1,3-oxazolidin-5-yl)methyl]thiophene-2-carboxamide] | 6.61 | 6.83
4 | CCOc1nccn(-c2ccc(N3C[C@H](CNC(=O)c4ccc(Cl)s4)OC3=O)cc2C)c1=O [Example 18, 5-Chloro-N-({(5S)-3-[4-(3-ethoxy-2-oxopyrazin-1(2H)-yl)-3-methylphenyl]-2-oxo-1,3-oxazolidin-5-yl}methyl)thiophene-2-carboxamide] | 6.30 | 6.50
5 | CCOc1cccn(-c2ccc(N3C[C@H](CNC(=O)c4ccc(Cl)s4)OC3=O)cc2C)c1=O [Example 4, 5-Chloro-N-({(5S)-3-[4-(3-ethoxy-2-oxopyridin-1(2H)-yl)-3-methylphenyl]-2-oxo-1,3-oxazolidin-5-yl}methyl)thiophene-2-carboxamide] | 6.54 | 6.70
6 | O=C(NC[C@H]1CN(c2ccc(N3CCCN(CCO)C3=O)c(C(F)(F)F)c2)C(=O)O1)c1ccc(Cl)s1 [Example 38, 5-Chloro-N-{[(5S)-3-{4-[3-(2-hydroxyethyl)-2-oxotetrahydropyrimidin-1(2H)-yl]-3-(trifluoro-methyl)phenyl}-2-oxo-1,3-oxazolidin-5-yl]methyl}thiophene-2-carboxamide] | – | 6.60

Continued by rising pIC50 [2], values first:

Row | pIC50 [2] | Structure (SMILES) | pIC50 [1]
7 | 6.82 | CC(C)c1cc(N2C[C@H](CNC(=O)c3ccc(Cl)s3)OC2=O)ccc1N1CCCNC1=O [Example 32, 5-Chloro-N-({(5S)-3-[3-isopropyl-4-(2-oxotetrahydropyrimidin-1(2H)-yl)phenyl]-2-oxo-1,3-oxazolidin-5-yl}methyl)thiophene-2-carboxamide] | 7.15
8 | 7.27 | COCc1cc(N2C[C@H](CNC(=O)c3ccc(Cl)s3)OC2=O)ccc1N1CCCCC1=O [Example 27, 5-Chloro-N-({(5S)-3-[3-(methoxymethyl)-4-(2-oxopiperidin-1-yl)phenyl]-2-oxo-1,3-oxazolidin-5-yl}methyl)thiophene-2-carboxamide] | 7.41
9 | 7.47 | O=C(NC[C@H]1CN(c2ccc(N3CCOCCC3=O)c(C3CC3)c2)C(=O)O1)c1ccc(Cl)s1 [Example 30, 5-Chloro-N-({(5S)-3-[3-cyclopropyl-4-(5-oxo-1,4-oxazepan-4-yl)phenyl]-2-oxo-1,3-oxazolidin-5-yl}methyl)thiophene-2-carboxamide] | 7.60
10 | 7.85 | Cc1cc(N2C[C@H](CNC(=O)c3ccc(Cl)s3)OC2=O)cc(C)c1-n1cccc(OCCO)c1=O [Example 16, 5-Chloro-N-{[(5S)-3-{4-[3-(2-hydroxyethoxy)-2-oxopyridin-1(2H)-yl]-3,5-dimethylphenyl}-2-oxo-1,3-oxazolidin-5-yl]methyl}thiophene-2-carboxamide] | 6.67
11 | 8.10 | CCCc1cc(N2C[C@H](CNC(=O)c3ccc(Cl)s3)OC2=O)ccc1-n1ccccc1=O [Example 19] | 6.44
